For one test, the target named is T1, human SGLT1 (Homo sapiens, UniProt P13866).
T1 construct: expressed in transfected cells; vector pCMV-tag5A (Stratagene)
T1 sequence (P13866 1-664): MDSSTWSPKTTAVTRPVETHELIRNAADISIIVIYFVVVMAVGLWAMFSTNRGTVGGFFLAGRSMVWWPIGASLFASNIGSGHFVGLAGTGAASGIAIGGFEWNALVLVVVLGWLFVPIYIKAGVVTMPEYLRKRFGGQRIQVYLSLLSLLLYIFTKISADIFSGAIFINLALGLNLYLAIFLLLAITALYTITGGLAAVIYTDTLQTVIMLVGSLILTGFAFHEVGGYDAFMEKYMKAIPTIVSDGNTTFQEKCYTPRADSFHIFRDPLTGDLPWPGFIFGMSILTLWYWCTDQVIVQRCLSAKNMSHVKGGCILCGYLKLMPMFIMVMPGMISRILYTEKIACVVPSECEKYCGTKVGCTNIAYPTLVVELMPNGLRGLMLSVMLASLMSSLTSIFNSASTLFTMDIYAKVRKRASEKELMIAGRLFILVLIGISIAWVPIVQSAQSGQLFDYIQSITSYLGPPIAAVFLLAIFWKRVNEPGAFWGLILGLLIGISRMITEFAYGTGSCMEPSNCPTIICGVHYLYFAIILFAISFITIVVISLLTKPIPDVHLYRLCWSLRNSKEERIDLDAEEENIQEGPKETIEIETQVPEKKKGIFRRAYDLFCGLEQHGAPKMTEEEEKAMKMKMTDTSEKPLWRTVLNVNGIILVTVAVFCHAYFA
The test is described as follows: Inhibition test for sodium-dependent sugar uptake in CHO-k1 cells stably expressing human SGLT1. It is filed as cell-based. Conditions: 0.1 mM [14C]methyl α-D-glucopyranoside uptake, 37° C., 30 minutes. The procedure: (§1) A human SGLT1 sequence (NM_000343) was reverse-transcribed and amplified from human small intestine mRNA, and then introduced into pCMV-tag5A (Stratagene). Likewise, a human SGLT2 sequence (NM_003041) was prepared from human kidney mRNA in the same manner and introduced into pcDNA3.1+hygro (Invitrogen). The individual cloned sequences were confirmed to be identical with the sequences reported.
(§2) The human SGLT1 and human SGLT2 expression vectors were each transfected into CHO-k1 cells using lipofectamine 2000 (Invitrogen). The cells were cultured in the presence of 500 μg/mL geneticin (SGLT1) or hygromycin B (SGLT2) to select resistant strains and specific activity of sugar uptake in the system shown below was used as an indicator to obtain SGLT-expressing cells.
(§3) The cells stably expressing human SGLT1 or human SGLT2 were used for an inhibition test of sodium-dependent sugar uptake activity.
(§4) The cells were incubated for 20 minutes in 1 mL pretreatment buffer (140 mM choline chloride, 2 mM KCl, 1 mM CaCl2, 1 mM MgCl2, 10 mM HEPES/5 mM Tris, pH 7.4). The pretreatment buffer was removed and replaced with 200 μL uptake buffer containing a test compound (methyl α-D-glucopyranoside (containing [^14C]methyl α-D-glucopyranoside) at 0.1 mM for SGLT1 inhibition and 1 mM for SGLT2 inhibition, 140 mM NaCl, 2 mM KCl, 1 mM CaCl2, 1 mM MgCl2, 10 mM HEPES/5 mM Tris, pH 7.4). Uptake reaction was performed at 37° C. for 30 minutes (SGLT1) or 1 hour (SGLT2). After the reaction, the cells were washed twice with 1 mL washing buffer (10 mM methyl α-D-glucopyranoside, 140 mM choline chloride, 2 mM KCl, 1 mM CaCl2, 1 mM MgCl2, 10 mM HEPES/5 mM Tris, pH 7.4), and then dissolved in a 0.2 M NaOH solution (400 μL). Aquazol 2 (Perkin Elmer) was added and mixed well with each sample, followed by measurement of radioactivity using a liquid scintillation counter (Beckman Coulter) to calculate the amount of sugar uptake. For the control group, uptake buffer containing no test compound was prepared. Moreover, another uptake buffer containing choline chloride instead of NaCl was also prepared for basal uptake.
(§5) Test compounds prepared at 6 appropriate concentrations were used to measure the amount of sugar uptake, and their concentrations required for 50% inhibition of the amount of sugar uptake were calculated as IC50 values, assuming that the amount of sugar uptake in the control group was set to 100%.

The next test addresses T2, human SGLT2 (Homo sapiens, UniProt P31639).
T2 construct: expressed in transfected cells; vector pcDNA3.1+hygro (Invitrogen)
T2 sequence (P31639 1-672): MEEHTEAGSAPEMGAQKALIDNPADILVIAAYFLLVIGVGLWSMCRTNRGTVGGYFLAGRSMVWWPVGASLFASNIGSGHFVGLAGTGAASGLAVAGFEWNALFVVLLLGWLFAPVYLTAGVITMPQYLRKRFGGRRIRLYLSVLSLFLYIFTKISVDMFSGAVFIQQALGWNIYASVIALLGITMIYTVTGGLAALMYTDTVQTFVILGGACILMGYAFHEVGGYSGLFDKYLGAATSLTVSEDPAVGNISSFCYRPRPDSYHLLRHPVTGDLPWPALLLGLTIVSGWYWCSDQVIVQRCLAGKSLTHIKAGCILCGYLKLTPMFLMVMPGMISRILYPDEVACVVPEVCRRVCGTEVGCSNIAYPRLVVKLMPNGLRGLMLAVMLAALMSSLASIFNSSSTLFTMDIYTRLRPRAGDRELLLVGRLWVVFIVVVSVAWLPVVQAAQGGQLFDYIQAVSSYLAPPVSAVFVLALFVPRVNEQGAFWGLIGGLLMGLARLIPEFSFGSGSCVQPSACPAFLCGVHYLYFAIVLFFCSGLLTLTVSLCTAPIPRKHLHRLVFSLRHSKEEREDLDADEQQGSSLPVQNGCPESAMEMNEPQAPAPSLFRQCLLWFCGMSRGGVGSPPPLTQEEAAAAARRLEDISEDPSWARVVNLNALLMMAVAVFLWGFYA
Put plainly: Inhibition test for sodium-dependent sugar uptake in CHO-k1 cells stably expressing human SGLT2. It is filed as cell-based. Conditions: 1 mM [14C]methyl α-D-glucopyranoside uptake, 37° C., 1 hour. The procedure:
as §1, §2, §3, §4, §5

Another test relates to db/db mice. The test is described as follows: Confirmation test for hypoglycemic effect in db/db mice. The format is in vivo. As to conditions: oral gavage, 1 mg/10 mL suspension at 10 mL/kg, decrease in blood glucose AUC (0 to 8 hours) relative to control group. The procedure:
The laboratory animals used were db/db mice (CLEA Japan, Inc., male, 7 weeks of age). A test substance was suspended in a 0.5% aqueous carboxymethylcellulose (CMC) solution and adjusted to a concentration of 1 mg/10 mL. On the day of the test, the db/db mice were divided into groups of 6 animals each, such that differences in the mean values and variance of their blood glucose levels were minimized, according to the procedures for blood collection and blood glucose measurement described later. The mice were measured for their body weight. Then, the test substance suspension was administered by oral gavage using a probe for oral administration at a volume of 10 mL/kg. The control group received a 0.5% aqueous CMC solution alone. Blood was collected at 8 points in total: before administration of the test substance (0 hour) and 0.5, 1, 2, 4, 6, 8 and 24 hours after oral administration. The test was performed under ad libitum feeding and drinking conditions.
Blood was collected from the orbital venous sinus of each animal under ether anesthesia using a heparin-coated blood collection tube and measured for its blood glucose level with a Glucose CII-Test Wako (Wako Pure Chemical Industries, Ltd., Japan). To determine the intensity (%) of hypoglycemic effect, casual blood glucose levels measured between 0 and 8 hours in each test group were analyzed by the trapezoidal method to calculate the area under the blood glucose-time curve (AUC). The results are expressed as a decrease in AUC relative to that of the control group.

For `COc1ccc(Cc2cc([C@@H]3S[C@H](CO)[C@@H](O)[C@H](O)[C@H]3O)c(O)cc2C)cc1` [II, (1S)-1,5-anhydro-1-[5-(4-methoxybenzyl)-4-methyl-2-hydroxyphenyl]-1-thio-D-glucitol], the concentration for half-maximal inhibition (IC50) amounted to 32 nM against human SGLT1 and 20 nM against human SGLT2. Moreover, the “Intensity of hypoglycemic effect” value in the test on db/db mice was found to be 49.7%.

Consider `CCc1ccc(Cc2cc([C@@H]3S[C@H](CO)[C@@H](O)[C@H](O)[C@H]3O)c(O)cc2C)cc1` [III, (1 S)-1,5-anhydro-1-[5-(4-ethylbenzyl)-2-hydroxy-4-methylphenyl]-1-thio-D-glucitol], for which the IC50 against human SGLT1 turned out to be 32 nM; against human SGLT2, 12 nM.

Consider `CCOc1ccc(Cc2cc([C@@H]3S[C@H](CO)[C@@H](O)[C@H](O)[C@H]3O)c(O)cc2C)cc1` [Compound 98, reference compound], for which the “Intensity of hypoglycemic effect” value in the test with db/db mice is recorded as 35.0%.

As to `COc1ccc(Cc2cc([C@@H]3S[C@H](CO)[C@@H](O)[C@H](O)[C@H]3O)c(O)cc2Cl)cc1` [VII, (1S)-1,5-anhydro-1-[4-chloro-2-hydroxy-5-(4-methoxybenzyl)phenyl]-1-thio-D-glucitol], the half-maximal inhibitory concentration (IC50) against human SGLT1 was found to be 33 nM; at human SGLT2, 13 nM.

`Cc1ccc(Cc2cc([C@@H]3S[C@H](CO)[C@@H](O)[C@H](O)[C@H]3O)c(O)cc2C)cc1` [Compound I, (1S)-1,5-anhydro-1-[4-methyl-5-(4-methylbenzyl)-2-hydroxyphenyl]-1-thio-D-glucitol]: the half-maximal inhibitory concentration (IC50) turned out to be 17 nM against human SGLT1 and 20 nM on human SGLT2. Moreover, the “Intensity of hypoglycemic effect” value with db/db mice is listed as 48.5%.

In the case of `Cc1ccc(Cc2cc([C@@H]3S[C@H](CO)[C@@H](O)[C@H](O)[C@H]3O)c(O)cc2Cl)cc1` [V, (1S)-1,5-anhydro-1-[4-chloro-2-hydroxy-5-(4-methylbenzyl)phenyl]-1-thio-D-glucitol], the IC50 stood at 19 nM on human SGLT1 and 11 nM on human SGLT2.

For `CSc1ccc(Cc2cc([C@@H]3S[C@H](CO)[C@@H](O)[C@H](O)[C@H]3O)c(O)cc2C)cc1` [Compound IV, (1S)-1,5-anhydro-1-[2-hydroxy-4-methyl-5-[4-(methylsulfanyl)benzyl]phenyl]-1-thio-D-glucitol], the IC50 amounted to 27 nM against human SGLT1 and 10 nM against human SGLT2.

Take `CCc1ccc(Cc2cc([C@@H]3S[C@H](CO)[C@@H](O)[C@H](O)[C@H]3O)c(O)cc2Cl)cc1` [VI, (1S)-1,5-anhydro-1-[4-chloro-2-hydroxy-5-(4-ethylbenzyl)phenyl]-1-thio-D-glucitol]: the half-maximal inhibitory concentration (IC50) was found to be 29 nM against human SGLT1 and 8 nM against human SGLT2.

Source of the values: patent US20100069460A1, “1-PHENYL 1-THIO-D-GLUCITOL DERIVATIVE” (TAISHO PHARMACEUTICAL CO., LTD., priority 2006, published 2010).
